Data taken from US11612615B2, “Combined administration of cysteine-aspartic protease inhibitors with P2Y12 receptor antagonists protects the heart against myocardial infarction” (The University of South Alabama, priority 2017, dated 2023).
“Also recorded” adds a separate entry of the source.

Columns and labels:
[1] = test system: blood-free isolated rat hearts (global I/R injury); test: Ex vivo isolated buffer-perfused heart, 40-min global ischemia/120-min reperfusion
Procedure: To examine effects of VX-765 on blood-free isolated hearts, rats were anesthetized as described above. Animals were intubated through tracheotomy and positive pressure ventilation initiated with 100% oxygen. A thoracotomy was performed and the heart was quickly excised from the chest cavity for mounting on a Langendorff apparatus (within one minute). The coronary arteries were retroperfused with Krebs buffer through the aortic root and a latex balloon was placed in the lumen of the left ventricle allowing volume adjustment to 100 mmHg peak ventricular pressure. After a 20-min period of equilibration, perfusion was stopped for 40-min to induce global ischemia. The heart was maintained in a water-jacketed chamber filled with buffer during the occlusion period at a constant temperature of 37° C. Perfusion was re-initiated and continued for 120-min. The balloon was deflated at the beginning of reperfusion so subendocardial perfusion would not be impaired by any elevation in luminal diastolic pressure. The balloon was reinflated to zero diastolic pressure (unstressed ventricular volume) so final developed pressure could be measured. The coronary effluent was sampled immediately prior to ischemia, immediately at reperfusion, and serially thereafter every 20-min. The heart was perfused with buffer containing either vehicle (DMSO) or VX-765 for 10-min prior to ischemia and again during reperfusion. Two groups were tested: 1) DMSO vehicle control perfused at 0.5 mL/L of buffer and 2) VX-765, 30 μM final concentration. After 120 minutes reperfusion, developed pressure was measured as the difference between end-systolic and end-diastolic left ventricular pressure with a transducer attached to the intraventricular balloon. Infarct size was measured as above. Collected effluent was analyzed for lactate dehydrogenase (LDH) as previously described. An independent aliquot was concentrated 20-fold using a 3,000 MW cut-off ultrafilter (Millipore) and assayed for IL-113 by ELISA (ThermoFisher Scientific).

[2] = test system: I/R injury of the heart (LAD occlusion); test: In situ open-chest LAD occlusion, 60-min ischemia/120-min reperfusion, infarct size by TTC staining; format: in vivo, Sprague-Dawley rats; conditions: for infarct size / cardioprotection (in words): open chest rat hearts, 60 min ischemia/120-min reperfusion, treatment just prior to reperfusion; for infarction, % of the risk zone: rat, 60-min LAD ligation/120-min reperfusion, VX-765 32 mg/kg iv 5 min, cangrelor 60 μg/kg iv bolus + 6 μg/kg/min, ticagrelor 30 mg/kg ip 10 min prior to reperfusion, mean ± standard error
[3] = test system: buffer perfused mouse hearts (global ischemia); test: Isolated buffer-perfused mouse heart, 35 or 50 min global ischemia/2 h reperfusion, infarct size; design: species or system C57BL/6 mice; conditions: for infarct size reduction (in words): mouse heart, 30 uM VX-765 10 min prior to ischemia and throughout reperfusion, 9 uM emricasan first 20 min of reperfusion, FIG. 9
Procedure: Hearts were removed from pentobarbital-anesthetized C57BL/6 mice and quickly (less than 3 min) mounted on a Langendorff perfusion apparatus where they were retroperfused with Krebs buffer at 100 mmHg pressure and at 37 Deg C. After 20 min perfusion to equilibrate the perfusion was stopped to create global ischemia. After and index ischemia of either 35 or 50 min the hearts were reperfused for 2 h and infarct size was measured by triphenyltetrazolium staining. Treatments included 30 uM VX-765 for 10 min prior to ischemia and throughout reperfusion, 9 uM emricasan for the first 20 min of reperfusion only, Ischemic preconditioning (IPC) with three cycles of 5 min ischemic Plus 5 min reperfusion prior to the index ischemia, or IPC+emricasan.

protein carbonylation = test: 60-min ischemia/30-min reperfusion: protein oxidation (carbonylation) oxyblotting of heart tissue; format: in vivo, rat; conditions: ischemic and non-ischemic tissues, FIG. 5D
Procedure: (§1) Applicants' standard in situ open chest LAD occlusion protocol was modified to examine effects of a 30-min reperfusion period on heart tissue enzymes and metabolic function. Two groups were tested with infusions occurring 5-min prior to reperfusion: 1) vehicle control DMSO (the VX-765 solvent) was administered as (1.0 mL of 100% DMSO)×(kg body weight) with the final infusion volume adjusted to 0.9 mL with normal saline; and 2) VX-765, 32 mg/kg. Immediately prior to experiment terminus, blood was collected and serum assayed by ELISA for levels of circulating IL-113. At experiment terminus, the heart was removed from the chest and mounted on a Langendorff apparatus where it was perfused with normal saline. The coronary branch was re-occluded and 15 μm fluorescent microspheres were infused to identify the ischemic zone followed by acquisition of biopsies from both ischemic and non-ischemic zones. […] Normalized amounts of protein were resolved by SDS-PAGE (4-20% Tris-Glycine gradient gels) and analyzed by immunoblotting using antibodies against Caspase-1, glyceraldehyde-3-phosphate dehydrogenase (GAPDH), Aldolase-A, and Hexokinase II. […] For all blotting experiments, protein transfer membranes were first stained with Coomassie Brilliant Blue (CBB) and analyzed on the LiCor Odyssey for total protein levels. […]

[4] = test system: Caspase-1, GAPDH, Aldolase-A, Hexokinase II; test: 60-min ischemia/30-min reperfusion: immunoblotting of heart tissue biopsies; format: in vivo, rat
Procedure: (§2) Applicants' standard in situ open chest LAD occlusion protocol was modified to examine effects of a 30-min reperfusion period on heart tissue enzymes and metabolic function. Two groups were tested with infusions occurring 5-min prior to reperfusion: 1) vehicle control DMSO (the VX-765 solvent) was administered as (1.0 mL of 100% DMSO)×(kg body weight) with the final infusion volume adjusted to 0.9 mL with normal saline; and 2) VX-765, 32 mg/kg. Immediately prior to experiment terminus, blood was collected and serum assayed by ELISA for levels of circulating IL-113. At experiment terminus, the heart was removed from the chest and mounted on a Langendorff apparatus where it was perfused with normal saline. The coronary branch was re-occluded and 15 μm fluorescent microspheres were infused to identify the ischemic zone followed by acquisition of biopsies from both ischemic and non-ischemic zones. Viable samples were immediately prepared for high resolution respirometry using the Oroboros oxygraph O2K as previously described. In parallel, a portion of the biopsied tissue was immediately ejected into liquid nitrogen and stored at −80° C. Subsequently, tissues were homogenized and solubilized for analyses of total protein. Normalized amounts of protein were resolved by SDS-PAGE (4-20% Tris-Glycine gradient gels) and analyzed by immunoblotting using antibodies against Caspase-1, glyceraldehyde-3-phosphate dehydrogenase (GAPDH), Aldolase-A, and Hexokinase II. In a separate set of blots, samples were assayed for protein oxidation (carbonylation) using the oxidized protein western blot kit (Abcam, oxyblotting). For all blotting experiments, protein transfer membranes were first stained with Coomassie Brilliant Blue (CBB) and analyzed on the LiCor Odyssey for total protein levels. These CBB data were used to normalize all immuno- and oxyblotting data.

[5] = test system: I/R injury of the heart (LAD occlusion); conditions: VX-765 16 mg/kg body weight 30-min prior to onset of ischemia; cited from earlier work
IL-1β = test: In situ open-chest LAD occlusion, 60-min ischemia/30-min reperfusion: serum IL-1β ELISA; format: in vivo, rat; conditions: VX-765 32 mg/kg 5-min prior to reperfusion, FIG. 4A
Procedure: as §1

[6] = test system: mitochondrial complexes (Complex-I, Complex-III); test: 60-min ischemia/30-min reperfusion: high resolution respirometry of heart tissue biopsies; format: in vivo, rat
Procedure: as §2
Tissue mitochondrial function is reported as the amount of oxygen consumed (i.e., JO2). In this protocol, heart tissues are harvested 30-min after reperfusion to ensure tissue retention of mitochondrial function and permeabilized with detergents to allow direct assessment of each mitochondrial complex via addition of specific substrates (i.e., electron donors) and poisons. Using this early 30-min reperfusion time point allows differentiation of dysfunctional mitochondrial complex activities from the absolute loss of function occurring at later time points after cell death had ensued. As a further level of experimental control, mitochondrial complex activities were assayed in non-ischemic and ischemic zone tissues isolated from animals treated with vehicle control (DMSO) or the Caspase-1 inhibitor VX-765.

coronary I/R = conditions: rat models of coronary I/R; cited from earlier work

## CCO[C@@H]1OC(=O)C[C@@H]1NC(=O)[C@@H]1CCCN1C(=O)[C@@H](NC(=O)c1ccc(N)c(Cl)c1)C(C)(C)C [VX-765, (S)-1-((S)-2-{[1-(4-amino-3-chloro-phenyl)-methanoyl]-amino}-3,3-dimethyl-butanoyl)-pyrrolidine-2-carboxylic acid ((2R,3S)-2-ethoxy-5-oxo-tetrahydro-furan-3-yl)-amide]
[1]; VX-765 30 μM, FIG. 3C
  LDH release into coronary effluent: all but abolished
[1]; blood free isolated buffer-perfused heart, FIG. 3
  protection against global I/R injury (in words): protects against global I/R injury
[1]; end of 120-min reperfusion, VX-765 30 μM
  left ventricular developed pressure: 20.5±4.2 mmHg
[1]; isolated rat heart, VX-765 30 μM in perfusate prior to ischemia and during reperfusion
  average infarction: 45.8±1.5%
[2]; VX-765 iv prior to ischemia, data not shown
  dose dependence of infarct size reduction (pilot studies): independent of the dose above 16 mg/kg
[2]
  infarct size / cardioprotection (in words): reduced infarct size
  infarction, % of the risk zone: 38.6±3.9%
[3]
  infarct size reduction (in words): similarly reduced infarct size; also recorded: equipotent for infarct size reduction
Protein carbonylation
  protein carbonylation: no differences in protein carbonylation
[4]; ischemic tissue, VX-765 32 mg/kg, FIG. 4B
  levels of active Caspase-1 in tissue: did not prevent Caspase-1 activation
[4]; ischemic zone, FIG. 4C
  GAPDH degradation: prevented degradation of GAPDH in the ischemic zone
[4]; ischemic zone, FIG. 4D
  aldolase-A degradation: partially prevented degradation of aldolase-A
[4]; ischemic zone, FIG. 4E
  hexokinase II degradation (negative control): no effect in hexokinase II
[5]
  cardioprotection, previously reported: extremely cardioprotective
IL-1β
  IL-1β level in blood, vehicle (DMSO) compared to VX-765: significantly higher levels of IL-113 in blood when compared to animals treated with VX-765
[6]; compared to vehicle, FIG. 5C
  Complex-III activity: no significant differences
[6]; different substrates, FIG. 7
  JO2 in different states of mitochondrial respiration: none of the heart tissues from any group displayed JO2 differences
[6]; non-ischemic and ischemic tissues, compared to vehicle, FIG. 5B
  Complex-I activity: significantly decreased Complex-I activity
[6]; tissues reperfused for 30-min, FIG. 5A
  respiratory ratio (mitochondrial fitness): not different among all groups

## CSCCNc1nc(SCCC(F)(F)F)nc2c1ncn2[C@@H]1O[C@H](COP(=O)(O)OP(=O)(O)C(Cl)(Cl)P(=O)(O)O)[C@@H](O)[C@H]1O [cangrelor]
[2]
  infarct size / cardioprotection (in words): reduced infarct size
  infarction, % of the risk zone: 43.8±2.4%

## C[C@H](NC(=O)C(=O)Nc1ccccc1C(C)(C)C)C(=O)N[C@@H](CC(=O)O)C(=O)COc1c(F)c(F)cc(F)c1F [emricasan]
[3]; index ischemia 50 min, IPC three cycles 5 min ischemia/5 min reperfusion, 9 uM emricasan
  protection in combination with ischemic preconditioning (IPC): additive protection
[3]
  infarct size reduction (in words): similarly reduced infarct size; also recorded: equipotent for infarct size reduction
[3]; listed as Emricasan
  infarct size reduction (in words): as protective as VX-765 pretreatment

## CCCSc1nc(N[C@@H]2C[C@H]2c2ccc(F)c(F)c2)c2nnn([C@@H]3C[C@H](OCCO)[C@@H](O)[C@H]3O)c2n1 [ticagrelor]
[2]; IPOC three cycles of 30 s reperfusion/30 s occlusion at end of 60 min ischemia, FIG. 10
  protection when combined with ischemic postconditioning (IPOC): no more protective than either alone
[2]
  infarct size / cardioprotection (in words): reduced infarct size; also recorded: no more cardioprotective than cangrelor
  infarction, % of the risk zone: 42.8±3.3%

## zVAD
Coronary I/R
  infarct size: reduced infarct size
